IC50 and DC50 data for ten compounds are collected here from US11542273B2, “Amide compound having bet proteolysis-inducing action and medicinal application thereof” (MITSUBISHI TANABE PHARMA CORPORATION, priority 2018, dated 2023).

Assay [1] concerns human prostate cancer LNCaP cells. Put plainly: Cytotoxic action on cancer cells (WST-8, 96 hr). In kind it is cell-based. The following applies: Homo sapiens, LNCaP, 96 h, read-out: LNCaP cytotoxic activity: IC50. The protocol:
The cytotoxic action of the compound of the present invention against human cancer cells was evaluated in vitro. In this experiment, (+)-JQ1 (Nature volume 468, pages 1067-1073 (23 Dec. 2010)) known to have an inhibitory activity on the binding of BRD4 protein and a ligand therefor was used as a positive control drug. Respective cells were suspended in 10% FBS/RPMI1640, seeded in a 96 well plate and cultured at 5% CO2, 37° C. overnight. A test compound dissolved in DMSO was diluted with 10% FBS/RPMI1640 and added and the cells were further cultured for 96 hr. After culturing, the viable cell number was measured using a cell number measurement WST-8 kit (Kishida Chemical Co., Ltd.). As a control, the measurement was performed under conditions free of the test compound. The cytotoxic activity of the compound of the present invention against human prostate cancer LNCaP cells is shown in IC50 value in Table 1. […] It was calculated from the straight line connecting the cell survival rate at two points enclosing the 50% cell survival rate and the compound concentration. In addition, the cytotoxic activity against respective cancer cells of human acute myeloid leukemia MV-4-11 cell, human chronic myeloid leukemia K562 cell, human multiple myeloma MM.1S cell, human diffuse large B-cell lymphoma SU-DHL-6 cell, human T-cell leukemia Jurkat cells, human Burkitt lymphoma Raji cell, human castration-resistant prostate cancer PC-3 cell, human ovarian cancer A2780 cell, human bladder cancer 5637 cell, human breast cancer ZR-75-1 cell, human triple negative breast cancer MDA-MB-231 cell, human uterine sarcoma MES-SA cell, human gastric cancer SNU-16 cell, human non-small cell lung cancer NCI-H1975 cell, human small cell lung cancer NCI-H82 cell, human large cell lung cancer NCI-H460 cell, human colorectal cancer HCT116 cell, human glioma U-87 MG cell, human pancreatic cancer AsPC-1 cell, and human liver cancer Hep G2 cell is shown in IC50 value in Table 2.
For orientation: Tetrazolium assays rely on reduction of a dye to a coloured formazan, in cell work by metabolically active cells.

The target of assay [2] is BRD4 protein (Homo sapiens (Human), UniProt O60885). Put plainly: BRD4 protein degradation inducing action in cancer cells (immunofluorescence, Operetta). The assay is classed as cell-based. The conditions noted are these: LNCaP cells, 6 hr treatment, fluorescence intensity. The procedure: The degradation inducing action of the compound of the present invention on BRD4 protein in cancer cells was evaluated in vitro using human prostate cancer LNCaP cells. LNCaP cells were suspended in 10% FBS/RPMI1640, seeded in a 96 well Cell carrier plate (Perkin Elmer) and cultured at 5% CO2, 37° C. overnight. A test compound dissolved in DMSO was diluted with 10% FBS/RPMI1640 and added and the cells were further cultured for 6 hr. After culturing, the cells were immobilized with 4% para-formaldehyde/PBS and further subjected to a permeation treatment with 0.25% Triton X-100/PBS. Thereafter, the cells were blocked with 10% BSA/PBS, a solution containing Anti-Brd4 antibody (Abcam) or Anti-BRD4 (Sigma-Aldrich) as the primary antibody was added and the cells were incubated at 4° C. overnight. Thereafter, as the secondary antibody, a solution containing secondary antibody A shown below was added to Example compounds 1-190, 223 and 224, and a solution containing secondary antibody B shown below was added to Example compounds 191-222, and 0.5 μg/mL Hoechst 33342 (Sigma-Aldrich) and 14 μM Acti-Stain 555 Fluorescent Phalloidin (Cytoskeleton) were further added. After incubation for 1 hr, BRD4 protein amount was measured by Operetta (Perkin Elmer) as fluorescence intensity.
• Anti-Rabbit IgG(H+L), F(ab′)2 Fragment (Alexa Fluor 488 Conjugate) (Cell Signaling Technology), fluorescence intensity was measured at excitation: 495 nm, emission: 519 nm. Secondary Antibody B • Goat anti-Rabbit IgG(H+L) Cross-Adserbed Secondary Antibody (Alexa Fluor 546) (Thermo Fisher Scientific) fluorescence intensity was measured at excitation: 560 nm, emission: 572 nm.
The BRD4 protein degradation inducing activity of the compound of the present invention in LNCaP cells is shown in DC50 value in Table 3. The DC50 value is a concentration of the compound showing 50% fluorescence intensity when the fluorescence intensity thereof under compound untreated condition is 100%. It was calculated from the straight line connecting the fluorescence intensity at two points enclosing the 50% fluorescence intensity and the compound concentration.

Usually IC50 stands for the concentration needed to halve the response being measured. As a reminder, the DC50 is the concentration at which degradation of the target reaches its halfway point. The low end stands for degradation at low concentration, the high end for degradation only at high concentration. `COC(=O)C[C@@H]1N=C(c2ccc(-c3ccc(NCC(=O)N[C@H](C(=O)N4C[C@H](O)C[C@H]4C(=O)N[C@@H](C)c4ccc(-c5scnc5C)cc4)C(C)(C)C)cc3)cc2)c2c(sc(C)c2C)-n2c(C)nnc21` [Example 45, methyl [(6S)-4-(4′-{[2-({(2S)-1-[(2S,4R)-4-hydroxy-2-({(1S)-1-[4-(4-methyl-1,3-thiazol-5-yl)phenyl]ethyl}carbamoyl)pyrrolidin-1-yl]-3,3-dimethyl-1-oxobutan-2-yl}amino)-2-oxoethyl]amino}[1,1′-biphenyl]-4-yl)-2,3,9-trimethyl-6H-thieno[3,2-f][1,2,4]triazolo[4,3-a] [1,4]diazepin-6-yl]acetate]: in assay [1], the IC50 amounted to 0.32 nM. This compound also returned a DC50 in assay [2] of 0.051 nM.
On the same counts, the results for `COC(=O)C[C@@H]1N=C(c2ccc(Nc3cccc(OCC(=O)N[C@H](C(=O)N4C[C@H](O)C[C@H]4C(=O)N[C@@H](C)c4ccc(-c5scnc5C)cc4)C(C)(C)C)c3)cc2)c2c(sc(C)c2C)-n2c(C)nnc21` [Example 47, methyl [(6S)-4-(4-{3-[2-({(2S)-1-[(2S,4R)-4-hydroxy-2-({(1S)-1-[4-(4-methyl-1,3-thiazol-5-yl)phenyl]ethyl}carbamoyl)pyrrolidin-1-yl]-3,3-dimethyl-1-oxobutan-2-yl}amino)-2-oxoethoxy]anilino}phenyl)-2,3,9-trimethyl-6H-thieno[3,2-f][1,2,4]triazolo[4,3-a][1,4]diazepin-6-yl]acetate] are 0.42 nM and 0.45 nM.
As for `COC(=O)C[C@@H]1N=C(c2ccc(-c3ccc(OCC(=O)N[C@H](C(=O)N4C[C@H](O)C[C@H]4C(=O)N[C@@H](C)c4ccc(-c5scnc5C)cc4)C(C)(C)C)cc3C)cc2)c2c(sc(C)c2C)-n2c(C)nnc21` [Example 49, methyl [(6S)-4-{4′-[2-({(2S)-1-[(2S,4R)-4-hydroxy-2-({(1S)-1-[4-(4-methyl-1,3-thiazol-5-yl)phenyl]ethyl}carbamoyl)pyrrolidin-1-yl]-3,3-dimethyl-1-oxobutan-2-yl}amino)-2-oxoethoxy]-2′-methyl[1,1′-biphenyl]-4-yl}-2,3,9-trimethyl-6H-thieno[3,2-f][1,2,4]triazolo[4,3-a] [1,4]diazepin-6-yl]acetate], the IC50 in assay [1] came to 0.12 nM. Besides, it took 0.24 nM to reach half-maximal degradation in assay [2] (DC50).
As to `COC(=O)C[C@@H]1N=C(c2ccc(-c3ccc(OC(C)C(=O)N[C@H](C(=O)N4C[C@H](O)C[C@H]4C(=O)N[C@@H](C)c4ccc(-c5scnc5C)cc4)C(C)(C)C)cc3)cc2)c2c(sc(C)c2C)-n2c(C)nnc21` (stereo partly drawn) [Example 50, methyl [(6S)-4-(4′-{[1-({(2S)-1-[(2S,4R)-4-hydroxy-2-({(1S)-1-[4-(4-methyl-1,3-thiazol-5-yl)phenyl]ethyl}carbamoyl)pyrrolidin-1-yl]-3,3-dimethyl-1-oxobutan-2-yl}amino)-1-oxopropan-2-yl]oxy}[1,1′-biphenyl]-4-yl)-2,3,9-trimethyl-6H-thieno[3,2-f][1,2,4]triazolo[4,3-a] [1,4]diazepin-6-yl]acetate], in assay [1], the IC50 was 0.25 nM. The compound further showed a DC50 in assay [2] of 0.61 nM.
Take `COC(=O)C[C@@H]1N=C(c2ccc(-c3ccc(SCC(=O)N[C@H](C(=O)N4C[C@H](O)C[C@H]4C(=O)N[C@@H](C)c4ccc(-c5scnc5C)cc4)C(C)(C)C)cc3)cc2)c2c(sc(C)c2C)-n2c(C)nnc21` [Example 53, methyl [(6S)-4-(4′-{[2-({(2S)-1-[(2S,4R)-4-hydroxy-2-({(1S)-1-[4-(4-methyl-1,3-thiazol-5-yl)phenyl]ethyl}carbamoyl)pyrrolidin-1-yl]-3,3-dimethyl-1-oxobutan-2-yl}amino)-2-oxoethyl]sulfanyl}[1,1′-biphenyl]-4-yl)-2,3,9-trimethyl-6H-thieno[3,2-f][1,2,4]triazolo[4,3-a] [1,4]diazepin-6-yl]acetate]: the IC50 in assay [1] amounted to 0.2 nM. Half-maximal degradation in assay [2] (DC50) was put at 0.091 nM.
In the case of `COC(=O)C[C@@H]1N=C(c2ccc(-c3cccc(C(=O)N[C@H](C(=O)N4C[C@H](O)C[C@H]4C(=O)N[C@@H](C)c4ccc(-c5scnc5C)cc4)C(C)(C)C)c3)cc2)c2c(sc(C)c2C)-n2c(C)nnc21` [Example 60, methyl {(6S)-4-[3′-({(2S)-1-[(2S,4R)-4-hydroxy-2-({(1S)-1-[4-(4-methyl-1,3-thiazol-5-yl)phenyl]ethyl}carbamoyl)pyrrolidin-1-yl]-3,3-dimethyl-1-oxobutan-2-yl}carbamoyl)[1,1′-biphenyl]-4-yl]-2,3,9-trimethyl-6H-thieno[3,2-f][1,2,4]triazolo[4,3-a][1,4]diazepin-6-yl}acetate], the IC50 in assay [1] is 0.12 nM. In assay [2], the DC50 turned out to be 0.74 nM.
As to `COC(=O)C[C@@H]1N=C(c2ccc(-c3ccc(OCC(=O)N[C@H](C(=O)N4C[C@H](O)C[C@H]4C(=O)N[C@@H](C)c4ccc(-c5scnc5C)cc4)C(C)(C)C)nc3)cc2)c2c(sc(C)c2C)-n2c(C)nnc21` [Example 63, methyl [(6S)-4-(4-{6-[2-({(2S)-1-[(2S,4R)-4-hydroxy-2-({(1S)-1-[4-(4-methyl-1,3-thiazol-5-yl)phenyl]ethyl}carbamoyl)pyrrolidin-1-yl]-3,3-dimethyl-1-oxobutan-2-yl}amino)-2-oxoethoxy]pyridin-3-yl}phenyl)-2,3,9-trimethyl-6H-thieno[3,2-f][1,2,4]triazolo[4,3-a][1,4]diazepin-6-yl]acetate], the IC50 in assay [1] stood at 0.037 nM. The compound also displayed a DC50 in assay [2] of 0.11 nM.
Consider `COC(=O)C[C@@H]1N=C(c2ccc(-c3cc(C(=O)N[C@H](C(=O)N4C[C@H](O)C[C@H]4C(=O)N[C@@H](C)c4ccc(-c5scnc5C)cc4)C(C)(C)C)ccc3F)cc2)c2c(sc(C)c2C)-n2c(C)nnc21` [Example 106, methyl {(6S)-4-[2′-fluoro-5′-({(2S)-1-[(2S,4R)-4-hydroxy-2-({(1S)-1-[4-(4-methyl-1,3-thiazol-5-yl)phenyl]ethyl}carbamoyl)pyrrolidin-1-yl]-3,3-dimethyl-1-oxobutan-2-yl}carbamoyl)[1,1′-biphenyl]-4-yl]-2,3,9-trimethyl-6H-thieno[3,2-f][1,2,4]triazolo[4,3-a][1,4]diazepin-6-yl}acetate], for which the IC50 in assay [1] came out at 0.58 nM. The compound also registered a DC50 in assay [2] of 0.6 nM.
In the same order, the values of `COC(=O)C[C@@H]1N=C(c2ccc(-c3cccc(C(=O)N[C@H](C(=O)N4C[C@H](O)C[C@H]4C(=O)N[C@@H](C)c4ccc(-c5scnc5C)cc4)C(C)(C)C)n3)cc2)c2c(sc(C)c2C)-n2c(C)nnc21` [Example 113, methyl [(6S)-4-{4-[6-({(2S)-1-[(2S,4R)-4-hydroxy-2-({(1S)-1-[4-(4-methyl-1,3-thiazol-5-yl)phenyl]ethyl}carbamoyl)pyrrolidin-1-yl]-3,3-dimethyl-1-oxobutan-2-yl}carbamoyl)pyridin-2-yl]phenyl}-2,3,9-trimethyl-6H-thieno[3,2-f][1,2,4]triazolo[4,3-a][1,4]diazepin-6-yl]acetate] are 0.096 nM and 0.075 nM.
In the same order, the values of `COC(=O)C[C@@H]1N=C(c2ccc(-c3ccc(OC(F)(F)C(=O)N[C@H](C(=O)N4C[C@H](O)C[C@H]4C(=O)N[C@@H](C)c4ccc(-c5scnc5C)cc4)C(C)(C)C)cc3)cc2)c2c(sc(C)c2C)-n2c(C)nnc21` [Example 122, methyl [(6S)-4-{4′-[1,1-difluoro-2-({(2S)-1-[(2S,4R)-4-hydroxy-2-({(1S)-1-[4-(4-methyl-1,3-thiazol-5-yl)phenyl]ethyl}carbamoyl)pyrrolidin-1-yl]-3,3-dimethyl-1-oxobutan-2-yl}amino)-2-oxoethoxy][1,1′-biphenyl]-4-yl}-2,3,9-trimethyl-6H-thieno[3,2-f][1,2,4]triazolo[4,3-a][1,4]diazepin-6-yl]acetate] are 0.4 nM and 0.097 nM.
